Laboratory results reported in article PMC4931907 (eLife, 2016).
pIC50: −log10 of the molar value.

Key:
[1] = test system: Kasumi-1 cells; test: Growth and apoptosis of Kasumi-1 cells (trypan blue, annexin V/7AAD); type: cell-based, human; details: for Apoptosis, annexin V/7AAD double staining: Kasumi-1, 24 hr
Excerpt: Previously, we reported that the leukemogenicity of the AML1-ETO fusion protein, generated by a t(8;21) translocation in acute myelogenous leukemia, is regulated by p300-mediated acetylation of lysine 43 of the fusion protein ([Wang et al., 2011]).
Figure 4. […] (B) Kasumi-1 and AE9a cells treated or not with salicylate were counted by trypan-blue exclusion under light microscopy. […] The percentage of sub-G1 cells is shown. […] Cells were counted by trypan-blue exclusion under light microscopy. […] DOI: http://dx.doi.org/10.7554/eLife.11156.011
HEK293T cells (ATCC) were maintained in DMEM supplemented with 10% FCS. The viability of Kasumi-1 cells and AE9a mouse leukemia cells was assessed in triplicate by trypan blue exclusion. The Kasumi cell line was isolated and characterized by one of the coauthors (S. Nimer) ([Becker et al., 2008]). All cell lines were tested annually for mycoplasma contamination. Only negative mycoplasma cultures were used during the conduct of these experiments.
Apoptosis was analyzed with an Annexin V-APC/7AAD Apoptosis kit (Becton-Dickinson) according to manufacturer’s instructions. To assess the distribution of nuclear DNA content in the cell-cycle analysis, cells were collected, washed in PBS, fixed overnight in 75% ethanol at –20°C, treated with 1% RNase A for at least 15 min at 37°C, and stained with […] propidium iodide. To monitor CD34 expression, the cells were stained with an allophycocyanin-conjugated anti-CD34 antibody (Becton Dickinson). To monitor CD11b expression, the cells were stained with a phycoerythrin-conjugated anti-CD11b antibody (Beckman-Coulter). To monitor C-kit and Mac-1 expression, the cells were stained with allophycocyanin-conjugated anti-C-kit and phycoerythrin-conjugated anti-Mac-1 antibodies (Becton-Dickinson). Cells were sorted with a Becton-Dickinson FACSCalibur, and the data were analyzed with FlowJo software.

[2] = test system: acetyl p53K382; test: Acetylation of overexpressed p53 in HEK293T cells, Western blot; type: cell-based; details: HEK293T transfected with p300 and p53, 24 hr
Excerpt: Figure 2.

[3] = test system: acetyl NF-κBK310; test: Acetylation of overexpressed NF-κB p65 in HEK293T cells, Western blot; type: cell-based; details: HEK293T transfected with p300 and NF-κB p65, 24 hr
Excerpt: Figure 2.

[4] = target: T1, PCAF (Homo sapiens, UniProt Q92831); test: In vitro HAT assay with recombinant PCAF, histones and 14C acetyl-CoA; type: biochemical
T1 construct: purchased Enzo Life Sciences
Description: (§1) To determine whether salicylate inhibits p300 and other acetyltransferases, we used in vitro acetylation assays with purified histones and a recombinant p300 catalytic domain.
(§2) Figure 1. Salicylate inhibits CBP/p300 in vitro. (A) Recombinant p300, CBP, GCN5, or PCAF and histones were incubated with ^14C-labeled acetyl-CoA with or without sodium salicylate, separated by SDS-PAGE, analyzed by autoradiography, and quantified with Image J software. Acetylation levels are relative to those in untreated controls. (B) Thermal stability assay for sodium salicylate binding to the p300 HAT domain. Tm, melting temperature. […] Histone acetylation was measured with several concentrations of acetyl-CoA (C) or histone (D) in the presence or absence of sodium salicylate. […] Acetylation of an H4(3–14) peptide was monitored using direct microfluidic mobility shift analysis as previously described ([Montgomery et al., 2014]; [Fanslau et al., 2010]). […]
(§3) Recombinant HAT ([…]), either p300, CBP, PCAF, or GCN5 (Enzo Life Sciences), and 10 µg of histones (Sigma) were incubated with sodium salicylate (Sigma) in reaction buffer (50 mM HEPES, pH 8.0, 10% glycerol, 1 mM) at 30°C for 30 min and then with 0.1 mCi of ^14C acetyl-CoA at 30°C for 60 min. Reactions were stopped by adding 6x sample buffer and analyzed by SDS-PAGE. […]

[5] = target: T2, CBP (Homo sapiens, UniProt Q92793); test: In vitro HAT assay with recombinant CBP, histones and 14C acetyl-CoA; type: biochemical; details: read-out: IC50, CBP-mediated acetyltransferase activity
T2 construct: purchased Enzo Life Sciences
Description: as §1, §2, §3

T2 sequence (Q92793 whole entry): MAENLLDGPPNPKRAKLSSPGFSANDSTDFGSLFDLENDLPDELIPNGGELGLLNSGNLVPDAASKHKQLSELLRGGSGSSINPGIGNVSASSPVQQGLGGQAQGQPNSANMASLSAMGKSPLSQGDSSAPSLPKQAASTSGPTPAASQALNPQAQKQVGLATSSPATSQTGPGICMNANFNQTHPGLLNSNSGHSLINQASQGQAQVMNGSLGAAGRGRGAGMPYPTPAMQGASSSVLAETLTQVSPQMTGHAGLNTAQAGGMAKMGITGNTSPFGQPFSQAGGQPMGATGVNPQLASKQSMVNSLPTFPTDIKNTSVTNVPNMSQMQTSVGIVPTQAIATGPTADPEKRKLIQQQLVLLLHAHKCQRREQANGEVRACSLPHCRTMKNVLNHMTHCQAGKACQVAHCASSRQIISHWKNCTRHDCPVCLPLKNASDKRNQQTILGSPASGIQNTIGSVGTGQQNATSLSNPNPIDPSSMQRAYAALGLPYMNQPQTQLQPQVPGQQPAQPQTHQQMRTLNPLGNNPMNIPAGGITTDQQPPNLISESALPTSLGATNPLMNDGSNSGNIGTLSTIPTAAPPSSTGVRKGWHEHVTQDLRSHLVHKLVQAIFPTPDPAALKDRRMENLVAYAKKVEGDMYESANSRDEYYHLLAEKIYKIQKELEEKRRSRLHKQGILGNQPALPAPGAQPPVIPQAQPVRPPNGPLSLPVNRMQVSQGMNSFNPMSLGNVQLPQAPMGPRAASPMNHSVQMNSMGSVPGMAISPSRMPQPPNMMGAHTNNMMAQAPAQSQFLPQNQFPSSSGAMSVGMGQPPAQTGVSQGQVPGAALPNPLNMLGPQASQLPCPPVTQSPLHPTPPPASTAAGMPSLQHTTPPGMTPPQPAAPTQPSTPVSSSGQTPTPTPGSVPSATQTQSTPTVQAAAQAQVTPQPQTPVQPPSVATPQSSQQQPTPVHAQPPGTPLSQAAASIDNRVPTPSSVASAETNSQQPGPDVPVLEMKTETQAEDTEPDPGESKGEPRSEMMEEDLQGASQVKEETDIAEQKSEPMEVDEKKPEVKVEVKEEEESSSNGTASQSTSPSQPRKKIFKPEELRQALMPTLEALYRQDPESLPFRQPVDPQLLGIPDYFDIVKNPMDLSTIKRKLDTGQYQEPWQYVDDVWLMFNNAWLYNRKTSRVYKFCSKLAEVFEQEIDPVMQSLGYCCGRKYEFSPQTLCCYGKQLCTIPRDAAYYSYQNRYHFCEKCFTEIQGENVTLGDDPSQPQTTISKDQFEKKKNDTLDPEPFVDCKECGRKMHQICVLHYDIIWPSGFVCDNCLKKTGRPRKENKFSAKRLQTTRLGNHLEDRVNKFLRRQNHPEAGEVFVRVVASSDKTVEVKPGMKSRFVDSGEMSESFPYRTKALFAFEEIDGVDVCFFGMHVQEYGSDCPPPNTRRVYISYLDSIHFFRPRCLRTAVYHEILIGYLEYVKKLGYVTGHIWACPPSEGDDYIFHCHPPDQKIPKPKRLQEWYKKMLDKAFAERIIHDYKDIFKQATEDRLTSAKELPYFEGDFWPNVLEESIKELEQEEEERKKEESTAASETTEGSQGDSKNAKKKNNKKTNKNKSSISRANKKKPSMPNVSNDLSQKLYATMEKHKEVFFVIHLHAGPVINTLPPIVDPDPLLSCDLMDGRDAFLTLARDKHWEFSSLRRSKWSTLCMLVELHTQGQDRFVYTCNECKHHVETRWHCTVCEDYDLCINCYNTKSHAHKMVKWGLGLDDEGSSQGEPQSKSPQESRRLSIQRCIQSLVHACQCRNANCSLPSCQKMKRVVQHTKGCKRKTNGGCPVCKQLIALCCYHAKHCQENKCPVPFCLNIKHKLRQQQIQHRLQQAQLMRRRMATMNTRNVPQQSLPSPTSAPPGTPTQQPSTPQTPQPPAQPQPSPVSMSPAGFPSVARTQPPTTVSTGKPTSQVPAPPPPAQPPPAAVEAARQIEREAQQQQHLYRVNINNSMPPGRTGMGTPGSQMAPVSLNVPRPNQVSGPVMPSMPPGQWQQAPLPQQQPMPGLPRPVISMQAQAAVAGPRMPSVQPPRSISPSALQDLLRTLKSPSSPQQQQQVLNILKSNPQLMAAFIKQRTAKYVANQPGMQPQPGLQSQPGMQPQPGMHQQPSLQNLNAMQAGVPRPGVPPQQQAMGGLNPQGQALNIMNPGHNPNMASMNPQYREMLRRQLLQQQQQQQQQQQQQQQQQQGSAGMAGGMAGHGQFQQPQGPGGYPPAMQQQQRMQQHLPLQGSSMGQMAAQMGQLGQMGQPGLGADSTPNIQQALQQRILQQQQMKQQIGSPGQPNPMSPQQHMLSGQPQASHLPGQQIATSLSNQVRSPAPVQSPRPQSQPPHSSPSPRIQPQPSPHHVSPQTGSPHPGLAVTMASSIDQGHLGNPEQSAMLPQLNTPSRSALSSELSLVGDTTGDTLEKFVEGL
T1 sequence (Q92831 whole entry, species assumed): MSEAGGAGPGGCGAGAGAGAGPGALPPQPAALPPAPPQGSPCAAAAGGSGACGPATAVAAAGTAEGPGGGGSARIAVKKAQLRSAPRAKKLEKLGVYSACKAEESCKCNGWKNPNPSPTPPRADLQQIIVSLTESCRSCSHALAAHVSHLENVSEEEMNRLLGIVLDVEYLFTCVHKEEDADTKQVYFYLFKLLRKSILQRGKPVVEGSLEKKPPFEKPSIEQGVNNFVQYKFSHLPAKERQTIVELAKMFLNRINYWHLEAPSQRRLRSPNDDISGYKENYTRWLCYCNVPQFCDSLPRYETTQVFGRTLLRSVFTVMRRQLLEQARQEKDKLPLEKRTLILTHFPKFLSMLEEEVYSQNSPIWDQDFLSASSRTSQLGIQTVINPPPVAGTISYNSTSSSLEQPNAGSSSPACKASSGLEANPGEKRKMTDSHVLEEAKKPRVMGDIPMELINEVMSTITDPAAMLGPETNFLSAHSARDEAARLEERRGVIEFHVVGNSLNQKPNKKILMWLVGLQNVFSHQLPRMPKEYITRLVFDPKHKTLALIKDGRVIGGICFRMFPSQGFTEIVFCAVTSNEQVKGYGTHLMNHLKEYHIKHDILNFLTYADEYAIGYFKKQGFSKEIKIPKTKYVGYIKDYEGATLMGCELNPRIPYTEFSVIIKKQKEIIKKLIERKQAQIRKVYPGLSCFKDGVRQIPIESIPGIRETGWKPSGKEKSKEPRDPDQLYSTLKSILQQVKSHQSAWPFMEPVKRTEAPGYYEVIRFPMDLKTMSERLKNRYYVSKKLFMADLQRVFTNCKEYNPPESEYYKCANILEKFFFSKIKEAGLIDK

SMILES | Apoptosis, annexin V/7AAD double staining [1] | Kasumi-1 cell growth ([1]; trypan-blue exclusion counts) | Acetylation of p53 K382 [2] | Acetylation of NF-κB p65 K310 [3] | Concentration inhibiting cell proliferation ([1]; Kasumi-1, trypan-blue exclusion counts) | Inhibition of PCAF acetyltransferase [4] | pIC50 [5]
O=C(O)c1cc(-c2ccc(F)cc2F)ccc1O [diflunisal] | increased apoptosis in a dose-dependent manner | inhibition of growth | suppressed acetylation |  |  |  | 
O=C(O)c1ccccc1O [salicylate, salicylic acid] | increased apoptosis |  | decreased acetylation | decreased acetylation | ≥ 1 mM | did not detectably inhibit | 2.24
